In patent publication US8343983B2, “Substituted pyrazolo-pyrimidine compounds” (ArQule, Inc., priority 2009, dated 2013):
Read-outs that look alike come from different tables or passages of the source.

Tested on: cancer cells
Experiment: MTS assay: inhibition of cell growth (formazan absorbance at 492 nm after 72 hours with test compound)
Format: cell-based
Conditions: inhibition class
Outline: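 DMEM with 1% FBS; cells seeded at 3000/well and grown 18 h at 37 °C, then exposed to compound for 72 h and to MTS/PMS for 4 h. IC50 is the concentration giving a 50% absorbance drop; grades are % inhibition bands.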

[1] = Homo sapiens, DLD-1 cells, read-out: DLD-1, MTS 72 hours at 10 uM
[2] = Homo sapiens, KATO III cells, read-out: KATO III, MTS 72 hours at 10 uM
[3] = Homo sapiens, MDA-MB-231 cells, read-out: MDA-MB-231, MTS 72 hours at 10 uM
[4] = Homo sapiens, NCI-H1299 cells, read-out: NCI-H1299, MTS 72 hours at 10 uM
[5] = Homo sapiens, PC-3 cells, read-out: PC-3, MTS 72 hours at 10 uM
[6] = PACA-2 cells, read-out: PACA-2, MTS 72 hours at 10 uM

Compound	inhibition at 10 µM [1] [%]	inhibition at 10 µM [2] [%]	inhibition at 10 µM [3] [%]	inhibition at 10 µM [4] [%]	inhibition at 10 µM [5] [%]	inhibition at 10 µM [6] [%]
COc1cc2c(cc1OC)CN(c1nc3c4c(n[nH]c4n1)CCN3Cc1ccccc1)CC2 [Compound 58, 6-benzyl-4-(6,7-dimethoxy-3,4-dihydroisoquinolin-2(1H)-yl)-2,6,7,8-tetrahydro-1,2,3,5,6-pentaazaacenaphthylene]	50 to 79	< 50	50 to 79	50 to 79	> 79	< 50
c1ccc(CN2CCc3n[nH]c4nc(NCc5ccco5)nc2c34)cc1 [Compound 54, 6-benzyl-N-(2-furylmethyl)-2,6,7,8-tetrahydro-1,2,3,5,6-pentaazaacenaphthylen-4-amine]	< 50	< 50	< 50	< 50	< 50	< 50
COc1cccc(CNc2nc3c4c(n[nH]c4n2)CCN3Cc2ccccc2)c1 [Compound 93, 6-benzyl-N-(3-methoxybenzyl)-2,6,7,8-tetrahydro-1,2,3,5,6-pentaazaacenaphthylen-4-amine]	< 50	< 50	< 50	< 50	< 50	< 50
COC[C@H](C)Nc1nc2c3c(n[nH]c3n1)CCN2Cc1ccccc1 [Compound 18, 6-benzyl-N-[(1S)-2-methoxy-1-methylethyl]-2,6,7,8-tetrahydro-1,2,3,5,6-pentaazaacenaphthylen-4-amine]	< 50	< 50	< 50	< 50	< 50	< 50
CC(C)CNC(=O)C1CN(Cc2ccccc2)c2nc(NCc3ccccc3)nc3[nH]nc1c23 (stereo not drawn) [Compound 236, 6-benzyl-4-(benzylamino)-N-(2-methylpropyl)-2,6,7,8-tetrahydro-1,2,3,5,6-pentaazaacenaphthylene-8-carboxamide]	< 50	< 50	< 50	< 50	< 50	< 50
COc1ccc(CN2CCc3n[nH]c4nc(NCCc5ccccc5)nc2c34)cc1 [Compound 116, 6-(4-methoxybenzyl)-N-(2-phenylethyl)-2,6,7,8-tetrahydro-1,2,3,5,6-pentaazaacenaphthylen-4-amine]	> 79	> 79	> 79	> 79	> 79	> 79
COc1ccc(CN2CCCc3n[nH]c4nc(NCc5cccnc5)nc2c34)cc1 [Compound 251, 6-(4-methoxybenzyl)-N-(pyridin-3-ylmethyl)-6,7,8,9-tetrahydro-2H-1,2,3,5,6-pentaazabenzo[cd]azulen-4-amine]	> 79	> 79	> 79	> 79	> 79	> 79
c1ccc(CN2CCc3n[nH]c4nc(N5CCN(Cc6ccncc6)CC5)nc2c34)cc1 [Compound 92, 6-benzyl-4-[4-(pyridin-4-ylmethyl)piperazin-1-yl]-2,6,7,8-tetrahydro-1,2,3,5,6-pentaazaacenaphthylene]	< 50	< 50	< 50	< 50	< 50	< 50
CN(CCc1ccccc1)c1nc2c3c(n[nH]c3n1)CCN2Cc1ccccc1 [Compound 81, 6-benzyl-N-methyl-N-(2-phenylethyl)-2,6,7,8-tetrahydro-1,2,3,5,6-pentaazaacenaphthylen-4-amine]	< 50	< 50	< 50	< 50	< 50	< 50
c1ccc(CN2CCc3n[nH]c4nc(N5CCN(Cc6ccccn6)CC5)nc2c34)cc1 [Compound 29, 6-benzyl-4-[4-(pyridin-2-ylmethyl)piperazin-1-yl]-2,6,7,8-tetrahydro-1,2,3,5,6-pentaazaacenaphthylene]	< 50	< 50	< 50	< 50	< 50	< 50
c1ccc(OCCNc2nc3c4c(n[nH]c4n2)CCN3c2ccccc2)cc1 [Compound 212, N-(4-phenoxyethyl)-6-phenyl-2,6,7,8-tetrahydro-1,2,3,5,6-pentaazaacenaphthylen-4-amine]	< 50	< 50	< 50	< 50	< 50	< 50
c1ccc(CN2CCc3n[nH]c4nc(N5CCN(Cc6cccnc6)CC5)nc2c34)cc1 [Compound 88, 6-benzyl-4-[4-(pyridin-3-ylmethyl)piperazin-1-yl]-2,6,7,8-tetrahydro-1,2,3,5,6-pentaazaacenaphthylene]	< 50	> 79	> 79	< 50	> 79	< 50
O=C(NCc1ccccc1)C1CN(Cc2ccccc2)c2nc(NCc3ccco3)nc3[nH]nc1c23 (stereo not drawn) [Compound 225, N,6-dibenzyl-4-[(furan-2-ylmethyl)amino]-2,6,7,8-tetrahydro-1,2,3,5,6-pentaazaacenaphthylene-8-carboxamide]	< 50	< 50	< 50	< 50	< 50	< 50
O=C(NCCc1ccccc1)C1CN(Cc2ccccc2)c2nc(NCc3ccccc3)nc3[nH]nc1c23 (stereo not drawn) [Compound 235, 6-benzyl-4-(benzylamino)-N-(2-phenylethyl)-2,6,7,8-tetrahydro-1,2,3,5,6-pentaazaacenaphthylene-8-carboxamide]	> 79	> 79	> 79	> 79	> 79	> 79
COc1ccc(CN2CCCc3n[nH]c4nc(NCCc5ccc(F)cc5)nc2c34)cc1 [Compound 248, N-[2-(4-fluorophenyl)ethyl]-6-(4-methoxybenzyl)-6,7,8,9-tetrahydro-2H-1,2,3,5,6-pentaazabenzo[cd]azulen-4-amine]	> 79	> 79	> 79	> 79	> 79	> 79
Fc1ccc(CCNc2nc3c4c(n[nH]c4n2)CCN3Cc2ccccc2)cc1 [Compound 46, 6-benzyl-N-[2-(4-fluorophenyl)ethyl]-2,6,7,8-tetrahydro-1,2,3,5,6-pentaazaacenaphthylen-4-amine]	> 79	> 79	> 79	50 to 79	< 50	> 79
Fc1ccc(CCNc2nc3c4c(n[nH]c4n2)CCN3)cc1 [Compound 124, N-[2-(4-fluorophenyl)ethyl]-2,6,7,8-tetrahydro-1,2,3,5,6-pentaazaacenaphthylen-4-amine]	< 50	< 50	< 50	< 50	< 50	50 to 79
c1ccc(N2CCc3n[nH]c4nc(NCc5cccnc5)nc2c34)cc1 [Compound 214, 6-phenyl-N-(pyridin-3-ylmethyl)-2,6,7,8-tetrahydro-1,2,3,5,6-pentaazaacenaphthylen-4-amine]	50 to 79	50 to 79	< 50	50 to 79	< 50	50 to 79
c1ccc(CN2CCc3n[nH]c4nc(N5CCN(Cc6ccc7c(c6)OCO7)CC5)nc2c34)cc1 [Compound 15, 4-[4-(1,3-benzodioxol-5-ylmethyl)piperazin-1-yl]-6-benzyl-2,6,7,8-tetrahydro-1,2,3,5,6-pentaazaacenaphthylene]	< 50	< 50	< 50	< 50	< 50	< 50
CN1CCN(c2nc3c4c(n[nH]c4n2)C(C(=O)NCc2ccccc2)CN3Cc2ccccc2)CC1 (stereo not drawn) [Compound 228, N,6-dibenzyl-4-(4-methylpiperazin-1-yl)-2,6,7,8-tetrahydro-1,2,3,5,6-pentaazaacenaphthylene-8-carboxamide]	< 50	< 50	< 50	< 50	< 50	< 50
c1ccc(CN2CCc3n[nH]c4nc(NCCc5ccc(-c6ccccc6)cc5)nc2c34)cc1 [Compound 66, 6-benzyl-N-(2-biphenyl-4-ylethyl)-2,6,7,8-tetrahydro-1,2,3,5,6-pentaazaacenaphthylen-4-amine]	50 to 79	< 50	< 50	< 50	< 50	50 to 79
O=C(NCc1ccccc1)C1CN(Cc2ccccc2)c2nc(N3CCN(c4ccccc4)CC3)nc3[nH]nc1c23 (stereo not drawn) [Compound 231, N,6-dibenzyl-4-(4-phenylpiperazin-1-yl)-2,6,7,8-tetrahydro-1,2,3,5,6-pentaazaacenaphthylene-8-carboxamide]	50 to 79	50 to 79	> 79	> 79	50 to 79	50 to 79
